What was measured:
Type in all cases: in vivo
[1] = system: wheat (Triticum aestivum L.), TRZAX; assay: Test Example 2 post-emergence (foliage treatment) herbicidal activity, TRZAX; conditions: 63 g a.i./ha
In short: (§1)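 Foliar spray of formulated compound (500 L/ha dilution water, 0.1% v/v spreader) onto young potted plants at defined leaf stages. Scored 0-100% by visual inspection 20-23 d post-spray.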

[2] = system: crabgrass (Digitaria sanguinalis L.), DIGSA; assay: Test Example 2 post-emergence (foliage treatment) herbicidal activity, DIGSA; conditions: 63 g a.i./ha
In short: (§2)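 Visual rating of growth control, from 0 (untreated-like) to 100 (complete kill), was done 20–23 days after post-emergence spraying. Wettable powder or emulsifiable concentrate was diluted to 500 L/ha with 0.1% (v/v) spreader. Leaf stages at application were 1.1-2.1 (ECHCG), 1.0-2.0 (DIGSA), 0.1-1.5 (AMARE) and 1.0-2 (ORYSA).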

[3] = system: barnyardgrass (Echinochloa crus-galli L.): ECHCG; assay: Test Example 1 pre-emergence herbicidal activity, ECHCG; conditions: Rate 63 g a.i./ha, visually observed 20th to 23rd day after application
In short: (§3)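 Scoring was visual growth control (0 = untreated, 100 = complete kill) on days 20–23 post-application. Treatment came as a pre-emergence spray one day after sowing in upland soil, using wettable powder or emulsifiable concentrate diluted in 500 L/ha water at predetermined active-ingredient amounts.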

[4] = system: barnyardgrass (Echinochloa crus-galli L.), ECHCG; assay: Test Example 2 post-emergence (foliage treatment) herbicidal activity, ECHCG; conditions: 63 g a.i./ha
In short: as §2

[5] = system: soybean (Glycine max Merr.), GLXMA; assay: Test Example 2 post-emergence (foliage treatment) herbicidal activity, GLXMA; conditions: 63 g a.i./ha
In short: as §1

[6] = system: rice (Oryza sativa L.: ORYSA); assay: Test Example 3 water application herbicidal activity (paddy), transplanted rice ORYSA; conditions: 63 g a.i./ha, water application 4th day after transplantation of 2 leaf stage rice, visually observed 21st day after application; 0 = untreated control, 100 = complete kill
In short: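 Compound, as diluted wettable powder or emulsifiable concentrate, was pipetted into flood water at a set active-ingredient dose. Weeds were treated at 0.5-leaf stage after sowing or tuber planting; 2-leaf rice 4 days post-transplant. Control scored visually, 0 untreated to 100 complete kill, weeds day 14, rice day 21.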

[7] = system: japanese ribbon wapato (Sagittaria pygmaea: SA GPY); assay: Test Example 3 water application herbicidal activity (paddy), SAGPY; conditions: 63 g a.i./ha, water application under submerged condition, tubers planted, visually observed 14th day after application; 0 = untreated control, 100 = complete kill
In short: (§4)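 Flooded paddy-soil pots in greenhouse; ECHOR and SCPJO sown, SAGPY tubers planted a day later, compound applied into 3–4 cm water at weeds' 0.5-leaf stage. Rice transplanted at 2-leaf stage, treated day 4 after transplanting. Visual growth control 0–100% at 14 days (weeds) and 21 days (rice) after application.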

[8] = system: soybean (Glycine max Merr.): GLXMA; assay: Test Example 1 pre-emergence herbicidal activity, GLXMA; conditions: Rate 63 g a.i./ha, visually observed 20th to 23rd day after application
In short: as §3

[9] = system: prickly sida (Sida spinosa L.): SEDSP; assay: Test Example 1 pre-emergence herbicidal activity, SIDSP; conditions: Rate 63 g a.i./ha, visually observed 20th to 23rd day after application
In short: as §3

[10] = system: corn (Zea mays L.): ZEAMX; assay: Test Example 1 pre-emergence herbicidal activity, ZEAMX; conditions: Rate 63 g a.i./ha, visually observed 20th to 23rd day after application
In short: as §3

[11] = system: green foxtail (Setaria viridis L.), SETVI; assay: Test Example 2 post-emergence (foliage treatment) herbicidal activity, SETVI; conditions: 63 g a.i./ha
In short: as §1

[12] = system: green foxtail (Setaria viridis L.): SETVI; assay: Test Example 1 pre-emergence herbicidal activity, SETVI; conditions: Rate 63 g a.i./ha, visually observed 20th to 23rd day after application
In short: as §3

[13] = system: prickly sida (Sida spinosa L.), SIDSP; assay: Test Example 2 post-emergence (foliage treatment) herbicidal activity, SIDSP; conditions: 63 g a.i./ha
In short: as §1

[14] = system: wheat (Triticum aestivum L.): TRZAX; assay: Test Example 1 pre-emergence herbicidal activity, TRZAX; conditions: Rate 63 g a.i./ha, visually observed 20th to 23rd day after application
In short: as §3

[15] = system: rice (Oryza sativa L.), ORYSA; assay: Test Example 2 post-emergence (foliage treatment) herbicidal activity, ORYSA; conditions: 63 g a.i./ha
In short: as §2

[16] = system: crabgrass (Digitaria sanguinalis L.): DIGSA; assay: Test Example 1 pre-emergence herbicidal activity, DIGSA; conditions: Rate 63 g a.i./ha, visually observed 20th to 23rd day after application
In short: as §3

[17] = system: barnyardgrass (Echinochiloa oryzicola: ECHOR); assay: Test Example 3 water application herbicidal activity (paddy), ECHOR; conditions: 63 g a.i./ha, water application under submerged condition at 0.5 leaf stage, visually observed 14th day after application; 0 = untreated control, 100 = complete kill
In short: as §4

[18] = system: rice (Oryza sativa L.): ORYSA; assay: Test Example 1 pre-emergence herbicidal activity, ORYSA; conditions: Rate 63 g a.i./ha, visually observed 20th to 23rd day after application
In short: as §3

[19] = system: corn (Zea mays L.), ZEAMX; assay: Test Example 2 post-emergence (foliage treatment) herbicidal activity, ZEAMX; conditions: 63 g a.i./ha
In short: as §1

[20] = system: redroot pigweed (Amaranthus retroflexus L.), AMARE; assay: Test Example 2 post-emergence (foliage treatment) herbicidal activity, AMARE; conditions: 63 g a.i./ha
In short: as §2

[21] = system: velvetleaf (Abutilon theophrasti), ABUTH; assay: Test Example 2 post-emergence (foliage treatment) herbicidal activity, ABUTH; conditions: 63 g a.i./ha
In short: as §1

[22] = system: redroot pigweed (Amaranthus retroflexus L.): AMARE; assay: Test Example 1 pre-emergence herbicidal activity, AMARE; conditions: Rate 63 g a.i./ha, visually observed 20th to 23rd day after application
In short: as §3

[23] = system: velvetleaf (Abutilon theophrasti): ABUTH; assay: Test Example 1 pre-emergence herbicidal activity, ABUTH; conditions: Rate 63 g a.i./ha, visually observed 20th to 23rd day after application
In short: as §3

[24] = system: japanese bulrush (Scirpus juncoides: SCPJO); assay: Test Example 3 water application herbicidal activity (paddy), SCPJO; conditions: 63 g a.i./ha, water application under submerged condition at 0.5 leaf stage, visually observed 14th day after application; 0 = untreated control, 100 = complete kill
In short: as §4

SMILES | growth controlling degree, TRZAX [1] [%] | growth controlling degree, DIGSP [2] [%] | Pre-emergence Herbicidal Activity ECHCG (growth controlling degree) [3] [%] | growth controlling degree, ECHCO [4] [%] | growth controlling degree, GLXMA [5] [%] | growth controlling degrees (%) ORYSA [6] [%] | growth controlling degrees (%) SAGPY [7] [%] | Pre-emergence Herbicidal Activity GLXMA (growth controlling degree) [8] [%] | Pre-emergence Herbicidal Activity SIDSP (growth controlling degree) [9] [%] | Pre-emergence Herbicidal Activity ZEAMX (growth controlling degree) [10] [%] | growth controlling degree, SETVI [11] [%] | Pre-emergence Herbicidal Activity SETVI (growth controlling degree) [12] [%] | growth controlling degree, SIDSP [13] [%] | Pre-emergence Herbicidal Activity TRZAX (growth controlling degree) [14] [%] | growth controlling degree, ORYSA [15] [%] | Pre-emergence Herbicidal Activity DIGSP (growth controlling degree) [16] [%] | growth controlling degrees (%) ECHOR [17] [%] | Pre-emergence Herbicidal Activity ORYSA (growth controlling degree) [18] [%] | growth controlling degree, ZEAMX [19] [%] | growth controlling degree, AMARE [20] [%] | further results
COc1c(Cl)cc(F)c(-c2nn(C)c(OC(F)F)c2Cl)c1NC(=O)c1ccccc1F [Compound 1-22] | 40 | 100 | 80 | 100 | 98 | 40 | 98 | 50 | 100 | 20 | 100 | 100 | 100 | 10 | 95 | 100 | 100 | 50 | 90 | 100 | growth controlling degree, ABUTH [21]: 100%; Pre-emergence Herbicidal Activity AMARE (growth controlling degree) [22]: 100%; Pre-emergence Herbicidal Activity ABUTH (growth controlling degree) [23]: 100%; growth controlling degrees (%) SCPJO [24]: 95%
COc1c(Cl)cc(F)c(-c2nn(C)c(OC(F)F)c2Cl)c1NC(=O)COc1ccc(Cl)cc1 [Compound 1-35] | 40 | 70 | 20 | 80 | 80 | 30 | 60 | 0 | 20 | 0 | 95 | 80 | 100 | 20 | 60 | 50 | 100 | 40 | 60 | 100 | growth controlling degree, ABUTH [21]: 100%; Pre-emergence Herbicidal Activity AMARE (growth controlling degree) [22]: 100%; Pre-emergence Herbicidal Activity ABUTH (growth controlling degree) [23]: 20%; growth controlling degrees (%) SCPJO [24]: 70%
COc1c(Cl)cc(F)c(-c2nn(C)c(OC(F)F)c2Cl)c1NC(=O)/C=C/c1ccccc1 [Compound 1-31] | 20 | 80 | 80 | 80 | 60 | 40 | 95 | 10 | 100 | 10 | 95 | 100 | 100 | 10 | 60 | 100 | 100 | 50 | 40 | 100 | growth controlling degree, ABUTH [21]: 100%; Pre-emergence Herbicidal Activity AMARE (growth controlling degree) [22]: 100%; Pre-emergence Herbicidal Activity ABUTH (growth controlling degree) [23]: 100%; growth controlling degrees (%) SCPJO [24]: 60%
COc1cccc(C(=O)Nc2c(OC)c(Cl)cc(F)c2-c2nn(C)c(OC(F)F)c2Cl)c1 [Compound 1-28] | 40 | 100 | 80 | 100 | 98 | 50 | 100 | 20 | 100 | 0 | 100 | 100 | 90 | 20 | 95 | 100 | 100 | 60 | 90 | 100 | growth controlling degree, ABUTH [21]: 100%; Pre-emergence Herbicidal Activity AMARE (growth controlling degree) [22]: 100%; Pre-emergence Herbicidal Activity ABUTH (growth controlling degree) [23]: 100%; growth controlling degrees (%) SCPJO [24]: 80%
COc1c(Cl)cc(F)c(-c2nn(C)c(OC(F)F)c2Cl)c1NC(=O)c1cccc(Br)c1 [Compound 1-27] | 30 | 100 | 30 | 100 | 70 | 50 | 98 | 20 | 80 | 0 | 100 | 80 | 70 | 0 | 80 | 100 | 100 | 20 | 60 | 100 | growth controlling degree, ABUTH [21]: 100%; Pre-emergence Herbicidal Activity AMARE (growth controlling degree) [22]: 100%; Pre-emergence Herbicidal Activity ABUTH (growth controlling degree) [23]: 70%; growth controlling degrees (%) SCPJO [24]: 70%

From patent US20050245399A1, “Pyrazole derivatives as herbicidal compositions containing them” (ISHIHARA SANGYO KAISHA, LTD., priority 2004, published 2005)
